Here are results for two compounds from US20080171893A1, “Isotopically labeled alpha-keto acids and esters” (Spectra Gases, Inc., priority 2006, published 2008).

Data set [1] in a line: Concentration study: stability of pyruvic acid solutions in water at higher concentrations. It is filed as physicochemical. The arrangement: unit not given here. Conditions: light, about 22° C. to about 26° C. Here is the method:
Each of these commercial solutions were subjected to light for 6-weeks at temperatures ranging from about 22° C. to about 26° C. At each of the concentrations listed below, it was discovered that the pyruvic acid solutions were stable.

For data set [2] the following is noted: background statement; cited from earlier work.
Data set [3] is described as follows: Shelf storage stability of [1-^13C]pyruvic acid in water, by ^1H and ^13C NMR. It is filed as physicochemical. Conditions: 0.025M in water. Here is the method: Samples of isotopically labeled [1-^13C]pyruvic acid, having Formula VI and synthesized as discussed immediately below, were subjected to various conditions as depicted in Table 1, in order to establish the compound's shelf storage stability.
The resulting [1-^13C]pyruvic acid was tested as follows in Table 1:
^1H and ^13C NMR spectra of the distilled [1-^13C]pyruvic acid in water (0.025M) were acquired at the onset of the study and prior to exposing the samples to the various conditions specified in Table 1. ^1H and ^13C NMR spectra were again acquired for each of the samples after being exposed to the aforementioned conditions on a weekly basis for 12-weeks. The spectra acquired after exposure were compared visually and appeared to remain unchanged as compared with the spectra acquired prior to exposure, i.e. the spectra were as expected for [1-^13C]pyruvic acid in water. As such, it was concluded that each of the samples were shelf stable. Similarly, ^1H and ^13C NMR spectra acquired after 17-weeks of exposure remained unchanged as compared with the spectra acquired prior to exposure.

Data set [4] is described as follows: Titration of aqueous sample 4 with sodium hydroxide, composition by HPLC. It counts as physicochemical. To be noted: sample 4 titrated with sodium hydroxide to pH of about 6.2. The text has this:
The molarity of sample 4 was confirmed to be 0.025M by titrating the aqueous sample with sodium hydroxide. […] It was also discovered that at pHs greater than 5.8, such as at a pH of about 6.2, some of the pyruvic acid was present in the form of a dimerized sodium salt. […] As such, it was discovered that to minimize dimmer formation, it may be necessary to control the pH of [1-^13C]pyruvate solutions, and in particular, any aqueous solution should be maintained at a pH of about 6.5 or less, more preferably 6.0 or less, and even more preferably 5.8 or less.

[5] abbreviates: Sample 1: −10° C., dark, NMR spectra unchanged.
Where [6] appears, read: Sample 3: room temperature (about 22° C. to about 26° C.), dark.
[7] abbreviates: Sample 4: room temperature (about 22° C. to about 26° C.), light.

`CC(=O)C(=O)O` [Formula VIB, 2-oxopropanoic acid]: the “Stability after 6-weeks” value in data set [1] (concentration 2.3 in water), in data set [1] (concentration 2.8 in water), in data set [1] (concentration 3.8 in water), in data set [1] (concentration 5.7 in water) and in data set [1] (concentration 11.3 in water) was “Stable” in each case. Besides, the Solubility in water entry in data set [2] is “soluble in water”.
`CC(=O)[13C](=O)O` [[1-^13C]pyruvic acid]: in data set [3] (setting [5]), the “Shelf stability, 12 weeks” value is reported as “Stable” and the “Shelf stability, 17 weeks” value is on record as “Stable”. Moreover, in data set [3] (Sample 2: 4° C., dark), the “Shelf stability, 12 weeks” value is recorded as “Stable” and the “Shelf stability, 17 weeks” value is on record as “Stable”. In addition, in data set [3] (setting [6]), the “Shelf stability, 12 weeks” value was “Stable” and the “Shelf stability, 17 weeks” value is recorded as “Stable”. In addition, in data set [3] (setting [7]), the “Shelf stability, 12 weeks” value is given as “Stable” and the “Shelf stability, 17 weeks” value is recorded as “Stable”. In data set [4], the “Content of dimerized [1-^13C]pyruvate salt by HPLC” value was 2-4%, the “Content of sodium [1-^13C]pyruvate by HPLC” value worked out at 89% and the “Share of the pyruvic acid accounted for by the dimerized salt” value was 4-6%.
